Laboratory results: patent US10688093B2, “Methods, compositions, and uses of novel Fyn kinase inhibitors” (priority 2015, dated 2020)

These compounds were tested against full-length recombinant human FYN A (Homo sapiens (Human), UniProt P06241) (assay: ADP-Glo Kinase Assay of FYN kinase inhibition). Conditions: primary screen, initial compounds.
Sequence of full-length recombinant human FYN A (P06241 whole entry): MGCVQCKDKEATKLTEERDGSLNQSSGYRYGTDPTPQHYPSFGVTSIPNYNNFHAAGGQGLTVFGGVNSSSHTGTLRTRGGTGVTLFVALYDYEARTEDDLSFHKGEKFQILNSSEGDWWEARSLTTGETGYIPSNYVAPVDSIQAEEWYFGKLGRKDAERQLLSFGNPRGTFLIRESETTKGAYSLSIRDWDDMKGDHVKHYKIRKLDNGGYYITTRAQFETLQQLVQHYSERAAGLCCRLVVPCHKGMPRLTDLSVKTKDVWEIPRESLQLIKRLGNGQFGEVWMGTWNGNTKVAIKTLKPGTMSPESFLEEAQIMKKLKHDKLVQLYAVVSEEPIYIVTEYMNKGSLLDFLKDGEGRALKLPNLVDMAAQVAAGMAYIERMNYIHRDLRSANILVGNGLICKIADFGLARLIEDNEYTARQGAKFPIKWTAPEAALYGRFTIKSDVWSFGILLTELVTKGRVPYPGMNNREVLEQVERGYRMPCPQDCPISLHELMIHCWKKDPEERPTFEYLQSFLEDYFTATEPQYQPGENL
Format: biochemical
Procedure, shortened: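 ADP-Glo read-out of peptide phosphorylation after 90 min RT with 12.5 pmol ATP and 100 pg 12-mer substrate. Enzyme was N-GST full-length human FYN A from insect cells, 3 pg, pre-incubated 30 min with compound, 10 points from 10 μM top, 3-fold steps; IC50 from curve.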
`COc1cccc(-c2ccc3ncc(-c4ccc(OC)c(OC)c4)n3n2)c1` [Compound 342, 3-(3,4-dimethoxy-phenyl)-6-(3-methoxyphenyl) imidazo[1,2-b]pyridazine] gave an IC50 of 952 nM.
`COc1cncc(-c2ccc3ncc(-c4cccc(NC(C)=O)c4)n3n2)c1` [Compound 343, N-[3-[6-(5-methoxy-3-pyridyl)imidazo [1,2-b]pyridazin-3-yl]phenyl] acetamide] showed an IC50 of 614 nM.
`COc1cncc(-c2ccc3ncc(-c4cccc(CO)c4)n3n2)c1` [Compound 344] was tested, and the IC50 was 2140 nM.
Compound `c1cc(-c2cnc3ccc(-c4ccc5c(c4)OCO5)nn23)ccn1` [Compound 345, 6-(1,3-benzodioxol-5-yl)-3-(4-pyridyl)imidazo [1,2-b]pyridazine] has an IC50 of 217 nM.
For `c1cc(-c2cnc3ccc(-c4ccoc4)nn23)ccn1` [Compound 346, 6-(3-furyl)-3-(4-pyridyl)imidazo [1,2-b]pyridazine], the IC50 was 1020 nM.
`CC(=O)Nc1cccc(-c2cnc3ccc(-c4cccc(Cl)c4)nn23)c1` [Compound 347, N-[3-[6-(3-chlorophenyl)imidazo[1,2-b]pyridazin-3-yl]phenyl] acetamide] showed an IC50 of 370 nM.
`COc1cccc(-c2ccc3ncc(-c4cccc(NC(C)=O)c4)n3n2)c1` [Compound 348, N-[3-[6-(3-methoxyphenyl)imidazo[1,2-b]pyridazin-3-yl]phenyl] acetamide] showed an IC50 of 409 nM.
With `OCc1cccc(-c2cnc3ccc(-c4cccc(O)c4)nn23)c1` [Compound 349, 3-[3-[3-(hydroxymethyl)phenyl]imidazo [1,2-b]pyridazin-6-yl]phenol] the IC50 was 954 nM.
`NC(=O)c1ccc(-c2ccc3ncc(-c4ccccc4)n3n2)cc1` [Compound 350, 4-(3-phenylimidazo [1,2-b]pyridazin-6-yl)benzamide] gave an IC50 of 2140 nM.
`Oc1cccc(-c2ccc3ncc(-c4ccc5c(c4)OCO5)n3n2)c1` [Compound 351, 3-[3-(1,3-benzodioxol-5-yl)imidazo[1,2-b]pyridazin-6-yl]phenol] was tested, and the IC50 was 915 nM.
For `c1ccc(-c2ccc3ncc(-c4cccnc4)n3n2)cc1` [Compound 352, 6-phenyl-3-(3-pyridyl)imidazo [1,2-b]pyridazine], the IC50 was 1940 nM.
Compound `c1cncc(-c2cnc3ccc(-c4cccs4)nn23)c1` [Compound 353, 3-(3-pyridyl)-6-(2-thienyl) imidazo[1,2-b] pyridazine] has an IC50 of 346 nM.
`CC(=O)Nc1cccc(-c2cnc3ccc(-c4cccc(C(C)=O)c4)nn23)c1` [Compound 354, N-[3-[6-(3-acetylphenyl)imidazo[1,2-b]pyridazin-3-yl]phenyl] acetamide] was tested, and the IC50 was 466 nM.
Work on `COc1cccc(-c2ccc3ncc(-c4cccc(O)c4)n3n2)c1` [Compound 355, 3-[6-(3-methoxyphenyl)imidazo[1,2-b]pyridazin-3-yl]phenol] yielded an IC50 of 1240 nM.
In the case of `COc1cc(-c2cnc3ccc(-c4ccc(OC)c(OC)c4)nn23)ccc1O` [Compound 356, 4-[6-(3,4-dimethoxyphenyl)imidazo[1,2-b]pyridazin-3-yl]-2-methoxy-phenol], the IC50 is reported as 44.5 nM.
Compound `COc1ccccc1-c1ccc2ncc(-c3cccc(C(C)=O)c3)n2n1` [Compound 357, 1-[3-[6-(2-methoxyphenyl)imidazo[1,2-b]pyridazin-3-yl]phenyl] ethanone] has an IC50 of 2330 nM.
In the case of `CC(=O)c1cccc(-c2cnc3ccc(-c4cnn(C)c4)nn23)c1` [Compound 358, 1-[3-[6-(1-methylpyrazol-4-yl)imidazo[1,2-3]pyridazin-3-yl]phenyl] ethanone], the IC50 is reported as 373 nM.
In the case of `CS(=O)(=O)Nc1cccc(-c2ccc3ncc(-c4cccs4)n3n2)c1` [Compound 359, N-[3-[3-(2-thienyl)imidazo [1,2-b]pyridazin-6-yl]phenyl] methane-sulfonamide], the IC50 is reported as 1210 nM.
`c1cncc(-c2ccc3ncc(-c4ccc5c(c4)OCO5)n3n2)c1` [Compound 360, 3-(1,3-benzodioxol-5-yl)-6-(3-pyridyl)imidazo [1,2-b]pyridazine] gave an IC50 of 688 nM.
With `OCc1ccc(-c2ccc3ncc(-c4cccnc4)n3n2)cc1` [Compound 361, [4-[3-(3-pyridyl)imidazo [1,2-b]pyridazin-6-yl]phenyl] methanol] the IC50 was 2910 nM.
For `OCc1ccc(-c2ccc3ncc(-c4cccc(O)c4)n3n2)cc1` [Compound 363, 3-[6-[4-(hydroxymethyl)phenyl]imidazo [1,2-b]pyridazin-3-yl]phenol], the IC50 was 285 nM.
`COc1ccccc1-c1ccc2ncc(-c3ccc(CO)cc3)n2n1` [Compound 364] was tested, and the IC50 was 3900 nM.
In the case of `COc1cccc(-c2ccc3ncc(-c4ccc(CO)cc4)n3n2)c1` [Compound 365, [4-[6-(3-methoxyphenyl)imidazo[1,2-b]pyridazin-3-yl]phenyl] methanol], the IC50 is reported as 1560 nM.
For `COc1cccc(-c2ccc3ncc(-c4ccc(O)c(OC)c4)n3n2)c1` [Compound 366, 2-methoxy-4-[6-(3-methoxyphenyl)imidazo[1,2-b]pyridazin-3-yl]phenol], the IC50 was 221 nM.
`CC(=O)c1cccc(-c2cnc3ccc(-c4ccoc4)nn23)c1` [Compound 367, 1-[3-[6-(3-furyl)imidazo [1,2-b]pyridazin-3-yl]phenyl] ethanone] was tested, and the IC50 was 3440 nM.
`NC(=O)c1ccc(-c2ccc3ncc(-c4cccs4)n3n2)cc1` [Compound 368, 4-[3-(2-thienyl)imidazo [1,2-b]pyridazin-6-yl]benzamide] was tested, and the IC50 was 951 nM.
For `O=C(NCCO)c1cccc(-c2ccc3ncc(-c4ccc5c(c4)OCO5)n3n2)c1` [Compound 369, 3-[3-(1,3-benzodioxol-5-yl)imidazo[1,2-b]pyridazin-6-yl]-N-(2-hydroxyethyl) benzamide], the IC50 was 367 nM.
Compound `OCc1cccc(-c2ccc3ncc(-c4ccc5c(c4)OCO5)n3n2)c1` [Compound 370, [3-[3-(1,3-benzodioxol-5-yl)imidazo[1,2-b]pyridazin-6-yl]phenyl] methanol] has an IC50 of 332 nM.
`CC(=O)Nc1cccc(-c2cnc3ccc(-c4cccs4)nn23)c1` [Compound 371, N-[3-[6-(2-thienyl)imidazo [1,2-b]pyridazin-3-yl]phenyl] acetamide] showed an IC50 of 210 nM.
With `Oc1cccc(-c2cnc3ccc(-c4ccccc4)nn23)c1` [Compound 372, 3-(6-phenylimidazo [1,2-b]pyridazin-3-yl)phenol] the IC50 was 894 nM.
For `CC(=O)c1cccc(-c2ccc3ncc(-c4cccc(O)c4)n3n2)c1` [Compound 373, 1-[3-[3-(3-hydroxyphenyl)imidazo[1,2-b]pyridazin-6-yl]phenyl] ethanone], the IC50 was 1600 nM.
`OCc1ccc(-c2cnc3ccc(-c4cccc(F)c4)nn23)cc1` [Compound 374, [4-[6-(3-fluorophenyl)imidazo[1,2-b]pyridazin-3-yl]phenyl] methanol] gave an IC50 of 2960 nM.
`CC(=O)c1cccc(-c2ccc3ncc(-c4cccc(CO)c4)n3n2)c1` [Compound 375, 1-[3-[3-[3-(hydroxymethyl)phenyl]imidazo [1,2-b]pyridazin-6-yl]phenyl] ethanone] was tested, and the IC50 was 2170 nM.
Work on `CC(=O)c1cccc(-c2cnc3ccc(-c4cccc(N(C)C)c4)nn23)c1` [Compound 376, 1-[3-[6-[3-(dimethylamino)phenyl]imidazo [1,2-b]pyridazin-3-yl]phenyl] ethanone] yielded an IC50 of 886 nM.
`CC(=O)c1cccc(-c2cnc3ccc(-c4ccc(N)nc4)nn23)c1` [Compound 377, 1-[3-[6-(6-amino-3-pyridyl)imidazo[1,2-b]pyridazin-3-yl]phenyl] ethanone] gave an IC50 of 283 nM.
